Assay results taken from patent US20250052751A1, “COMPOSITIONS AND METHODS FOR DIAGNOSING AUTOIMMUNE AQUAPORINOPATHY” (The Regents of the University of California, priority 2023, published 2025).

Assays:
[1] = biological target: T1, MHC class II I-A^b molecules (Mus musculus, UniProt P14434+P14483); test: I-A^b affinity assay (competitive binding against a radiolabeled high-affinity peptide); conditions: purified I-A^b; for peptide binding affinity for I-A^b: unlabeled peptide vs radiolabeled high-affinity competitor peptide
T1 construct: made in house
T1 sequence (P14434 24-256): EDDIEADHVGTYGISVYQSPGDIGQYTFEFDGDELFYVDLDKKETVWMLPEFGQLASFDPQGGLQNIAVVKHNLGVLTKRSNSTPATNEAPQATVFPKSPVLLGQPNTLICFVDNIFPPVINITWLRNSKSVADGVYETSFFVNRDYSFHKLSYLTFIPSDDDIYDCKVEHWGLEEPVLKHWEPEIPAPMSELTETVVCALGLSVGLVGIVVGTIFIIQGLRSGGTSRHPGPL
T1 sequence (P14483 28-265): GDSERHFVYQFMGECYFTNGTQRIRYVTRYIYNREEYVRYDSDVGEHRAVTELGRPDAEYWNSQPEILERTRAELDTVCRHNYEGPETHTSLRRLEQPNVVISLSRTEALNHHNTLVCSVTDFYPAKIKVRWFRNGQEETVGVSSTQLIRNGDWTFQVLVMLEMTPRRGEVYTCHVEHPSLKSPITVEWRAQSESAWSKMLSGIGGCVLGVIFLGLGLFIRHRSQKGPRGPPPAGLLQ
Protocol: FIGS. 2A-2F. Pathogenic AQP4 determinants bind I-A^b with high affinity and elicit proliferation of AQP4: I-A^b-specific TCR-bearing T cells in AQP4-deficient mice. (FIG. 2A) WT or AQP4^−/− mice were immunized s.c. with peptides indicated. Peptide-specific proliferation of draining lymph node cells was measured by 3H-thymidine incorporation (mean±SEM, representative of five experiments). (FIG. 2B) Lymph node cells from AQP4 immunized WT or AQP4^−/− mice were cultured for 3 days with cognate antigen under Th17 polarizing conditions. AQP4 p133-149- and p202-218-specific Th17 cells from AQP4/donors induce paralysis in WT recipient mice. (FIG. 2C) IEDB, an in silico method for predicting determinants within proteins that bind MHC alleles, was used to identify AQP4 amino acid sequences anticipated to bind I-A^b for recognition by AQP4-specific/I-A^b-restricted CD4^+ T cells. 1/IC50 is plotted against the first amino acid for each overlapping AQP4 15 mer. Peaks correspond to increased predicted binding affinity. (FIG. 2D) Purified I-A^b molecules were tested biochemically for peptide binding affinity using a competitive binding assay between a radiolabeled high-affinity competitor peptide and unlabeled peptides (22). Lower IC50 values indicate higher binding affinity. Boxed amino acids designate the core binding regions. (FIGS. 2E-2F) Lymph node T cells isolated from WT or AQP4−/− mice immunized with AQP4 p133-149 or p202-218 were stained with I-A^b:p133-149 and […] tetramers, bead-enriched and analyzed by flow cytometry. […] Each data point represents one mouse. ****p<0.0001 (Mann Whitney U test).
Both AQP4 p133-149 and p202-218 are predicted to bind MHC II (I-A^b) with high affinity according to the Immune Epitope Database (IEDB) (FIG. 2C), an in silico method for predicting determinants within proteins that bind allele-specific MHC molecules for presentation to T cells (21). We have now examined AQP4 peptide affinity for I-A^b biochemically. I-A^b molecules that were purified by affinity chromatography were tested in a competitive binding assay between a radiolabeled high-affinity competitor peptide and unlabeled peptides (22). Indeed, peptides containing the two pathogenic AQP4 T cell determinants bound I-A^b with higher affinity than the nonpathogenic AQP4 p24-35 T cell epitope or MOG p35-55 (FIG. 2D).
I-A^b affinity Assay. Purification of MHC class II I-A^b molecules by affinity chromatography, and the performance of assays based on the inhibition of binding of a high affinity radiolabeled peptide to quantitatively measure peptide binding, were performed as described (22). Lower IC50 values indicate higher binding affinity. Excellent binders have affinities less than 100 nM and good binders have affinities less than 1000 nM.

[2] = system: WT, RAG1^−/−, TCRa^−/− and JHT recipient mice; test: Adoptive transfer of Th17-polarized peptide-specific T cells, clinical and histologic CNS disease; format: in vivo, mouse
Description: FIGS. 5A-5B. Pathogenic AQP4-specific Th17 cells induce sustained CNS autoimmune disease in T cell-deficient mice. (FIG. 5A) Th17-polarized AQP4 p133-149-specific T cells from AQP4−/− mice were transferred into WT, T cell- and B cell-deficient (T cell-/B cell-, RAG1^−/−), T cell-deficient (T cell-, TCRa^−/−) and B cell-deficient (B cell-, JHT) recipient mice then scored for clinical disease. Donor Th17-polarized MOG p35-55-specific T cells were transferred into WT recipient mice as a control. Results are representative of four experiments (n=5 per group). (FIG. 5B) Recipient mice were evaluated for histologic evidence of meningeal and CNS parenchymal inflammation (H&E). Results are representative of two experiments (2-4 mice/group/time-point/experiment).
CNS autoimmune disease induction and analysis. For adoptive induction of CNS disease with primary lymphocytes, mice were immunized s.c. with 100 μg AQP4 or MOG peptides in CFA containing 400 μg M. tuberculosis H37Ra (Difco Laboratories). After 10-12 days, lymph node cells were cultured with 15 μg/ml antigen for 3 days with 20 ng/ml IL-23 and 10 ng/ml IL-6, under Th17 polarizing conditions. 2×10^7 cells were injected i.v. into naïve recipients, which then received 200 ng B. pertussis toxin (Ptx) (List Biological) i.p. on days 0 and 2. Clinical scores: 0=no disease, 1=tail tone loss, 2=impaired righting, 3=severe paraparesis or paraplegia, 4=quadraparesis, and 5=moribund or death.
For induction of CNS disease by I-A^b:AQP4 tet-sorted cells targeted cells, primary lymph node cells from AQP4 or WT mice were restimulated with […] antigen and irradiated splenocytes every 10 days. Percent tetramer binding was monitored by flow cytometry. In preparation for adoptive transfer, cells were washed and cultured with 1:10 T cell-to-irradiated splenocytes under polarizing conditions for 3 days. CD4^+ cells were negatively sorted using magnetic beads (Miltenyi). 5×10^6 were transferred to TCRa^−/− recipients. 200 ng Ptx was given on days 0 and 2.
Histopathology. Brain, spinal cord, optic nerve, kidney and muscle tissue samples were fixed in 10% neutral-buffered formalin, paraffin-embedded, sectioned and stained with H&E. Meningeal and parenchymal inflammatory lesions and areas of demyelination were assessed in a blinded manner as described (39).

Foxn1cre-AQP4^fl/fl mice = test: CNS autoimmunity by direct peptide immunization; format: in vivo, mouse
[3] = donor Th17 cells from AQP4^−/− mice, recipient WT and JHT mice

Sequence | I-A^b binding affinity relative to MOG p35-55 ([1]; competitive binding assay) | peptide binding affinity for I-A^b [1] | peptide binding affinity for I-A^b ([1]; listed as p202-218) | clinical and histologic CNS disease after transfer of peptide-specific Th17 cells ([2]; WT recipient mice) | CNS autoimmunity by immunization (Foxn1cre-AQP4^fl/fl mice) | CNS autoimmunity after transfer of tet^+-sorted T cells ([2]; I-A^b:AQP4 p133-149 tet^+-sorted T cells from immunized AQP4^−/− mice) | onset of paralysis after transfer [2, 3] [days] | time from onset to complete recovery [2, 3] [days] | clinical and histologic CNS disease after transfer of peptide-specific Th17 cells ([2]; recipient RAG1^−/− and TCRa^−/− mice) | CNS inflammation (H&E) ([2]; recipient WT and JHT mice, day 21)
LFAINYTGASMNPARSF [AQP4 p202-218] | more than ten times greater affinity than MOG p35-55 | highest affinity among peptides examined in this report | bound I-A^b avidly | capable of inducing paralysis and CNS inflammation in WT mice | – | – | – | – | – | –
LYLVTPPSVVGGLGVT [AQP4 p133-149] | – | bound I-A^b avidly | – | capable of inducing paralysis and CNS inflammation in WT mice | resistant to CNS autoimmunity | transferred CNS autoimmunity to WT mice | ~7 | 4 to 5 | persistent paralysis and CNS inflammation | no longer evident after recovery
